Results: ChEMBL document CHEMBL1201862, “PubChem BioAssay data set” (2004)
Active and inactive are the calls of the source.

How the values were obtained:
[1] = target: Luciferin 4-monooxygenase (Photinus pyralis, UniProt P08659); test: inhibition of purified Photinus pyralis luciferase – biochemical, luminescence, dose response (AID 1891)
[2] = Luminescence Cell-Based Dose Confirmation HTS to Identify Inhibitors of Platelet Dense Granule Release. [Related pubchem assays: 1663 (Primary HTS), 1678 (Summary of Project)]; format: functional
[3] = Luminescence-based counterscreen assay for KLF5 inhibitors: dose response cell-based high throughput screening assay to identify cytotoxic compounds using the IEC-6 intestinal epithelial cell line. [Related pubchem assays: 1700 (Primary screen.), 1834 (Confirmation screen.), 1858 (Summary AID.), 1905 (Counterscreen.)]; format: functional
[4] = target: Paired box protein Pax-8 (Homo sapiens, UniProt Q06710); test: PAX8 transcriptional activity inhibition in RMG-I – RMG-I cells, luciferase, cherry-pick, dose response (AID 687027); format: functional, cell-based;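 also: luciferase reporter driven by Pax8 target thyroperoxidase promoter measured by SteadyGlo luminescence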
Paired box protein Pax-8, sequence (Q06710 whole entry): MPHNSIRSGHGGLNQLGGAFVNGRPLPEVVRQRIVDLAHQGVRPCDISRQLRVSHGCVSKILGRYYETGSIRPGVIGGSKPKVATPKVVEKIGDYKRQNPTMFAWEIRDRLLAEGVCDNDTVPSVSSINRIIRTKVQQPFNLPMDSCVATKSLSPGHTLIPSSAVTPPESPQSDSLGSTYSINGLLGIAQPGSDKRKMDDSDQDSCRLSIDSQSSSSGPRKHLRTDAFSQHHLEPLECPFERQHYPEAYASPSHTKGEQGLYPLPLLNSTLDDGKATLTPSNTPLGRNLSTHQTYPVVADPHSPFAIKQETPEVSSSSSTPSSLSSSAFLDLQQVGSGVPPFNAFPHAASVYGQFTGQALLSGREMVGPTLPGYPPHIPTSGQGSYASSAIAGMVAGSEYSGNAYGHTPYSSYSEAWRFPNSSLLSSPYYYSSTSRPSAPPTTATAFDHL

[5] = target: COUP transcription factor 2 (Homo sapiens, UniProt P24468); test: Luminescence-based cell-based high throughput dose response assay to identify inhibitors of COUP-TFII (NR2F2).; format: functional;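 also: HEK293 cells transiently cotransfected with COUP-TFII expression vector and reporter; luciferase reporter luminescence driven by COUP-TFII from the pX2-168 reporter plasmid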
COUP transcription factor 2, sequence (P24468 whole entry): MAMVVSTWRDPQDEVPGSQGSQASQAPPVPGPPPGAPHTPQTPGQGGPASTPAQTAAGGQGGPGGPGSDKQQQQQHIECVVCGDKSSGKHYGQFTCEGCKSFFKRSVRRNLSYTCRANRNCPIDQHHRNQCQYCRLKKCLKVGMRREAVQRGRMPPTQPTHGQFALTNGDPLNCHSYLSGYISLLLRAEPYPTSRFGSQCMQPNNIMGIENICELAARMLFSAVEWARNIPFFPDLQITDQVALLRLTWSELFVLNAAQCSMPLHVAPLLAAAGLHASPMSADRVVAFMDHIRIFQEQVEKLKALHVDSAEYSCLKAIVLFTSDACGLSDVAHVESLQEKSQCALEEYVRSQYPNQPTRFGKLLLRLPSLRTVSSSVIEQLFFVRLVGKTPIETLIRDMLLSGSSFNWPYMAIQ

[6] = NIH-3T3 fibroblast cytotoxicity, dose response, cytotoxicity control, cell-based, fluorescence, Alamar Blue, secondary assay (AID 2327); format: functional;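 also: NIH-3T3 mouse fibroblasts cultured with fluconazole at 8 µg/mL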
[7] = fluconazole-exposed Candida albicans growth modulators – fluorescence, retest, confirmation (AID 2467); format: functional, cell-based
[8] = target: Voltage-gated inwardly rectifying potassium channel KCNH2 (Homo sapiens, UniProt Q12809); test: concentration-dependent hERG rescue from blockers – cell-based, thallium flux, dose response (AID 2121); format: ADME
Voltage-gated inwardly rectifying potassium channel KCNH2, sequence (Q12809 whole entry): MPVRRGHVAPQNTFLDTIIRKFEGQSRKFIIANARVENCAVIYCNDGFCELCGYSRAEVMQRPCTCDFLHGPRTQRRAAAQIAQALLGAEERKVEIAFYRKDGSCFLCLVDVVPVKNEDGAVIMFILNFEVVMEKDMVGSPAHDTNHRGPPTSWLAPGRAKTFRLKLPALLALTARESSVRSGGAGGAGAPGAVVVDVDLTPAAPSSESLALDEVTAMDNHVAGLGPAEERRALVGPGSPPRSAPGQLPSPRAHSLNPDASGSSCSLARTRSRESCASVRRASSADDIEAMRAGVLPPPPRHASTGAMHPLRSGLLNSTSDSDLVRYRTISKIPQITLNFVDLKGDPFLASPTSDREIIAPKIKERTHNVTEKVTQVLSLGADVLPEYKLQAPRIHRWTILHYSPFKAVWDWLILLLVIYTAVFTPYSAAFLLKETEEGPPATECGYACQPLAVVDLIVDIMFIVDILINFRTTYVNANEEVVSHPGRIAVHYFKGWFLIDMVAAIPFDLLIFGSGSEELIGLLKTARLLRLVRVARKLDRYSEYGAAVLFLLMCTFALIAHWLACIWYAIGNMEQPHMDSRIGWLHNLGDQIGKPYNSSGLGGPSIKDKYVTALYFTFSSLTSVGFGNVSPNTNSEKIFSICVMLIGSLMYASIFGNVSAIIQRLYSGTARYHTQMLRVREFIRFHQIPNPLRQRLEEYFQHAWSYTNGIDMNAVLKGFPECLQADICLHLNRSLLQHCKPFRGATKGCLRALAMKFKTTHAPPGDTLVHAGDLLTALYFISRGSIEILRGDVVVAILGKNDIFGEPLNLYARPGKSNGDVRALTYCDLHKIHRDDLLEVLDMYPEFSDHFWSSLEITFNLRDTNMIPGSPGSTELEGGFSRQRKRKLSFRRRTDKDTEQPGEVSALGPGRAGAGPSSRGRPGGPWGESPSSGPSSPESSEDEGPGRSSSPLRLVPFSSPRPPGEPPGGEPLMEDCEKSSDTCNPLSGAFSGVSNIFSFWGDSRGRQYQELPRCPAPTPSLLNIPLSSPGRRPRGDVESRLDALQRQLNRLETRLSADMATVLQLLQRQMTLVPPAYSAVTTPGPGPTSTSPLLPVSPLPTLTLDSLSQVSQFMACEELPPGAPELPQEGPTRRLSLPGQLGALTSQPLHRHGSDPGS

[9] = target: Beta-galactosidase (Escherichia coli, UniProt Q8VNN2); test: detection-enzyme interference by beta-gal modulators – biochemical, E. coli enzyme, set 3, artefact control for CCR6 antagonist project, dose response (AID 504712); format: functional
Beta-galactosidase, sequence (Q8VNN2 whole entry): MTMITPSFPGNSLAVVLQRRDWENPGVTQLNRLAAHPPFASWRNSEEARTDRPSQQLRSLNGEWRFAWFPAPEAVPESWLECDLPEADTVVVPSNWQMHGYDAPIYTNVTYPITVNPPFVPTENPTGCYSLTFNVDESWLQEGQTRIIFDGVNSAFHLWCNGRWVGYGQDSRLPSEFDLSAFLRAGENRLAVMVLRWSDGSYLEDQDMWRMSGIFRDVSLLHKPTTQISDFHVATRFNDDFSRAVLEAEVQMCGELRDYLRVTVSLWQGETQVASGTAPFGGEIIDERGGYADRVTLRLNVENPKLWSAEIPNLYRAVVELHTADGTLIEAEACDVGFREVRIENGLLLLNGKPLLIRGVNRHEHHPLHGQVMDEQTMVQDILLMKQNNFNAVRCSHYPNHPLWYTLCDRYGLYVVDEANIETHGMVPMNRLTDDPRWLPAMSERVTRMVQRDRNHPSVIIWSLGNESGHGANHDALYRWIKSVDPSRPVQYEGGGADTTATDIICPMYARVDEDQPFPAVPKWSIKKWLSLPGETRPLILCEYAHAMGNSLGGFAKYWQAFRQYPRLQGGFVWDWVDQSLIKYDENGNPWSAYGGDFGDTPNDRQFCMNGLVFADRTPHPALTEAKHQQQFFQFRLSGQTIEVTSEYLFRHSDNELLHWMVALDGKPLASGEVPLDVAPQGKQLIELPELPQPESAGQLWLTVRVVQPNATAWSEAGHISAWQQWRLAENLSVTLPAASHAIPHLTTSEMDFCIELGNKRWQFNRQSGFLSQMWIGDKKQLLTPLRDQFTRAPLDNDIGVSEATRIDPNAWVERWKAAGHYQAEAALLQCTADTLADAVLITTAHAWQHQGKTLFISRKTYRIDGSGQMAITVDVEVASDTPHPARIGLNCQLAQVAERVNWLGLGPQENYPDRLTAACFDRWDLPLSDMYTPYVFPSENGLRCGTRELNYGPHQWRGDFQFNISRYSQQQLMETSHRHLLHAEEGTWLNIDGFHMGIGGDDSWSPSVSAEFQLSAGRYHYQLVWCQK

[10] = HGIII-sPLA2 enzyme inhibition potency – biochemical, QFRET, IC50, dose response (AID 743457);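 also: green fluorescence rise as the enzyme cleaves BODIPY PC-A2 in liposomes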
[11] = HPDE-C7 pancreatic duct cell viability loss – fluorescence, HTS (AID 430); format: functional, cell-based; conditions: Homo sapiens
[12] = viability loss of HPDE-C7K cells – cell-based, fluorescence, HTS, primary screen (AID 431); format: functional; conditions: Homo sapiens
[13] = viability inhibitors of stage V gametocytes – luminescence, dose response (AID 1117278); format: functional, cell-based;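 also: gametocytes exposed to compound for 24 hours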
[14] = viability loss in human Jurkat cells – cell-based, luminescence, cytotoxicity control for P. falciparum gametocyte viability project, dose response (AID 1117277); format: functional;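 also: potency reflects loss of cellular ATP meaning fewer viable cells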
[15] = system: HEK293; test: inhibition of NOD1-driven NF-kB reporter – cell-based, luminescence, uHTS, primary screen (AID 1578); format: functional; conditions: Homo sapiens
[16] = system: HEK293; test: cells; format: functional, cell-based; conditions: Homo sapiens
[17] = system: HEK293; test: cells; format: functional, cell-based; conditions: Homo sapiens; remark: listed apart in the source
[18] = target: Nucleotide-binding oligomerization domain-containing protein 2 (Homo sapiens, UniProt Q9HC29); test: inhibition of NOD2-driven NF-kB reporter – cell-based, luminescence, uHTS, HEK293 (AID 1566); format: functional
Nucleotide-binding oligomerization domain-containing protein 2, sequence (Q9HC29 whole entry, the tested form may be a part): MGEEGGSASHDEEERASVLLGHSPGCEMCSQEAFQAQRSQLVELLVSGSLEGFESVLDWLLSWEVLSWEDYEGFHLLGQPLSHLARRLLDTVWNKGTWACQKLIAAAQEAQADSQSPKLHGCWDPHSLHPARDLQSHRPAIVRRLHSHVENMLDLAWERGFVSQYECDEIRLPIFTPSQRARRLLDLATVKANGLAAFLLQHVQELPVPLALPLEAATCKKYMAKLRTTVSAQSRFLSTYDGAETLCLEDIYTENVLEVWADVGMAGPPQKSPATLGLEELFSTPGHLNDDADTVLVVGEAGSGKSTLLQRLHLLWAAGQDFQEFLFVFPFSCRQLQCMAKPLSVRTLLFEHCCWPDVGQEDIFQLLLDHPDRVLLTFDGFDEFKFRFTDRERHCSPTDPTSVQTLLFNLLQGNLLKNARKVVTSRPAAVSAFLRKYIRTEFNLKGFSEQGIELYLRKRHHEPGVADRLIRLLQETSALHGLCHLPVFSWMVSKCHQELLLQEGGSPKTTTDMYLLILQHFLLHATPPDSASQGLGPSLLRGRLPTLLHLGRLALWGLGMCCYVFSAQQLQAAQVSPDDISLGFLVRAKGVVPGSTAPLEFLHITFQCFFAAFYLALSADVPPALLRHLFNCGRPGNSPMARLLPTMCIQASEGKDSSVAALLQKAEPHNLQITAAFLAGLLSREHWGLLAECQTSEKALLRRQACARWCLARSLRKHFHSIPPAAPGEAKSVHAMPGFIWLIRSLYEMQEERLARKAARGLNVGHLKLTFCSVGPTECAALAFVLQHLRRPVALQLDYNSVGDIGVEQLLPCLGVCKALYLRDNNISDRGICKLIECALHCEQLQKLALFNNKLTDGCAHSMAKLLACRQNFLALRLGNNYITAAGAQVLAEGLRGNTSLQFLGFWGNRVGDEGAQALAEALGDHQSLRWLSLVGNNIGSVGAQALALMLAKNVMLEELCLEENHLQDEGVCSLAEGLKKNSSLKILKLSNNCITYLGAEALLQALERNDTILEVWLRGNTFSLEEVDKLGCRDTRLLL

[19] = system: HEK293; test: NOD2 signaling inhibitors in MDP-stimulated cells, cell-based, uHTS, luminescence (AID 2001); format: functional; conditions: Homo sapiens
[20] = system: HEK293; test: cells; format: functional, cell-based; conditions: Homo sapiens; remark: listed apart in the source
[21] = system: INS1; test: INS-1E survival protection against cytokine death – cell-based, luminescence, retest, dose response (AID 449756); format: functional; conditions: Rattus norvegicus, INS1;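 also: cell death triggered by IL-1 beta plus TNF-alpha plus IFN-gamma mixture; protective hits raise ATP signal compared with cytokine alone wells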
[22] = reduction of Shn3 3'UTR-driven luciferase in osteoblasts – cell-based, Clone20 osteoblasts, firefly luciferase, cherry-picked, dose response (AID 624132); format: functional;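 also: firefly luciferase luminescence from reporter carrying the Shn3 3'UTR in osteoblasts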
[23] = loss of viability in HepG2 cells – cell-based, CellTiter-Glo, cherry-picked, cytotoxicity control for Shn3 inhibitor project, dose response (AID 624134); format: functional
[24] = Shn3 3'UTR reporter signal decrease – cell-based, Clone20 osteoblasts, firefly luciferase, cherry-pick, set 2, Schnurri-3 inhibitor project, dose response (AID 720490); format: functional;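 also: actives lower the luminescence signal as inhibitors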
[25] = reduced cellular PGC1a acetyl-lysine signal – cell-based, cherry-picked samples, dose response (AID 720514); format: functional;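 also: potency may reflect raised or lowered acetylation signal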
[26] = target: Cytochrome P450 3A4 (Homo sapiens, UniProt P08684);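 also: CYP3A4 tested as one member of a cytochrome P450 panel screen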
[27] = target: Cytochrome P450 2C9 (Homo sapiens, UniProt P11712)
Cytochrome P450 2C9, sequence (P11712 whole entry): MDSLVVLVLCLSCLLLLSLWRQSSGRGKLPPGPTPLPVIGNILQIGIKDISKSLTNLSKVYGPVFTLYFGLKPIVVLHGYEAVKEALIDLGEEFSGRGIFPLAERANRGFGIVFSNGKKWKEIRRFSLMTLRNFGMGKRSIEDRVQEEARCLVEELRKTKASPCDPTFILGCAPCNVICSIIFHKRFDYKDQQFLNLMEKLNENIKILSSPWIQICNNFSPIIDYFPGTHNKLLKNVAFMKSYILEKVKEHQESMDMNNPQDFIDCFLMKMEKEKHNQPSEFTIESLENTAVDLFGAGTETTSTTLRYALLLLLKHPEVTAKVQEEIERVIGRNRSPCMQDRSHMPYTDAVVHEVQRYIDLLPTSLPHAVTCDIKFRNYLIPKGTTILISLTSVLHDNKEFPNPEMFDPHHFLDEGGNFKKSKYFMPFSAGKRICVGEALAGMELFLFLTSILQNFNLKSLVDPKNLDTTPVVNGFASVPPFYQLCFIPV

For `CCCc1ccc(C(=O)O/N=C(\N)c2ccccn2)cc1`, the EC50 [1] was 0.407 µM (active), the EC50 [2] was 1.2 µM (active) and the IC50 [3] was 27.8 µM (not active). The AC50 [4] was 5.93 µM (active) and the IC50 [5] was 22.1 µM (inactive).

In the case of `CCOc1ccc2nc(N3C(=O)/C(=C/c4ccccc4)NC3=S)sc2c1`, the EC50 [6] is reported as > 150 µM (inconclusive), the EC50 [7] is reported as 3.03 µM (active) and the EC50 [8] is reported as 0.44 µM (active).

For `O=C(NC(=S)Nc1ccccc1N1CCCC1)c1ccc([N+](=O)[O-])cc1`, the EC50 [8] was 3.24 µM (active), the IC50 [9] was > 66.6 µM (inactive) and the IC50 [10] was 44.6 µM (inactive).

For `Cc1cc(C)nc(NCC(O)CNc2ccccc2Cl)n1` (stereo not drawn), the EC50 [11] was > 20 µM (not active) and the EC50 [12] was > 20 µM (not active).

For `Cc1ccc(S(=O)(=O)NCC(=O)N(CC(=O)NC2CCCC2)c2ccc3c(c2)OCCO3)cc1`, the IC50 [13] was > 109 µM (inactive) and the IC50 [14] was > 83.3 µM (inactive).

For `COc1ccc(CC(=O)Nc2ccncc2Cl)cc1`, the EC50 [15] was 4.73 µM (active), the IC50 [16] was 14 µM (active) and the IC50 [17] was > 20 µM (inactive). The EC50 [18] was 14.9 µM (active), the IC50 [19] was 17.8 µM (inactive) and the IC50 [20] was > 20 µM (inactive). For the same compound, the AC50 [21] was 5.67 µM (active), the AC50 [22] was 2.12 µM (active) and the AC50 [23] was 57.3 µM (active). For the same compound, the AC50 [24] was 2.13 µM (active).

For `CCc1ccc(C(=O)CN(C#N)c2nc(C)cc(C)n2)cc1`, the AC50 [25] was 19.3 µM (active), the AC50 [26] was 25.1 µM (inconclusive) and the AC50 [27] was “inconclusive”.
